In US20260285850A1, “SUBSTITUTED OXAZOLIDINONES AND IMIDAZOLINONES AS HERBICIDES” (FMC CORPORATION, priority 2023, published 2026):

Legend:
Format in all cases: in vivo
[1] = test system: barnyardgrass (Echinochloa crus-galli); assay: Test A preemergence soil spray, visual injury rating 0-100; conditions: 10 days; for Barnyardgrass plant response rating: 16 g ai/ha, 0 to 100 scale
How it was run: (§1)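 Grow plants in loam soil blended with sand. Apply formulated compound (non-phytotoxic solvent, surfactant) as a directed soil spray before emergence, or to plants at the one- to two-leaf stage after emergence. Hold in greenhouse 10 days, then rate injury visually versus untreated controls on a 0-100 scale.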

[2] = test system: blackgrass (Alopecurus myosuroides); assay: as above; conditions: 10 days; for Blackgrass plant response rating: 16 g ai/ha, 0 to 100 scale
How it was run: as §1

[3] = test system: corn (Zea mays); assay: as above; conditions: 10 days; for Corn plant response rating: 16 g ai/ha, 0 to 100 scale
How it was run: as §1

[4] = test system: green foxtail (Setaria viridis); assay: as above; conditions: 10 days; for Foxtail, Green plant response rating: 16 g ai/ha, 0 to 100 scale
How it was run: as §1

[5] = test system: kochia (Bassia scoparia); assay: as above; conditions: 10 days; for Kochia plant response rating: 16 g ai/ha, 0 to 100 scale
How it was run: as §1

[6] = test system: oat, wild (wild oat, Avena fatua); assay: as above; conditions: 10 days; for Oat, Wild plant response rating: 16 g ai/ha, 0 to 100 scale
How it was run: as §1

[7] = test system: palmer (palmer amaranth, palmer pigweed, Amaranthus palmeri); assay: as above; conditions: 10 days; for Pigweed, Palmer plant response rating: 16 g ai/ha, 0 to 100 scale
How it was run: as §1

[8] = test system: ragweed (common ragweed, Ambrosia artemisiifolia); assay: as above; conditions: 10 days; for Ragweed plant response rating: 16 g ai/ha, 0 to 100 scale
How it was run: as §1

[9] = test system: ryegrass, Italian (italian ryegrass, Lolium multiflorum); assay: as above; conditions: 10 days; for Ryegrass, Italian plant response rating: 16 g ai/ha, 0 to 100 scale
How it was run: as §1

[10] = test system: soybean (Glycine max); assay: as above; conditions: 10 days; for Soybean plant response rating: 16 g ai/ha, 0 to 100 scale
How it was run: as §1

[11] = test system: wheat (Triticum aestivum); assay: as above; conditions: 10 days; for Wheat plant response rating: 16 g ai/ha, 0 to 100 scale
How it was run: as §1

[12] = test system: barnyardgrass (Echinochloa crus-galli); assay: Test A postemergence application, visual injury rating 0-100; conditions: for Barnyardgrass plant response rating (0 to 100 scale): Postemergence, 16 g ai/ha, greenhouse 10 days, 0 no effect, 100 complete control
How it was run: as §1

[13] = test system: blackgrass (Alopecurus myosuroides); assay: as above; conditions: for Blackgrass plant response rating (0 to 100 scale): Postemergence, 16 g ai/ha, greenhouse 10 days, 0 no effect, 100 complete control
How it was run: as §1

[14] = test system: corn (Zea mays); assay: as above; conditions: for Corn plant response rating (0 to 100 scale): Postemergence, 16 g ai/ha, greenhouse 10 days, 0 no effect, 100 complete control
How it was run: as §1

[15] = test system: galium (catchweed bedstraw, Galium aparine); assay: as above; conditions: for Galium plant response rating (0 to 100 scale): Postemergence, 16 g ai/ha, greenhouse 10 days, 0 no effect, 100 complete control
How it was run: as §1

[16] = test system: green foxtail (Setaria viridis); assay: as above; conditions: for Foxtail, Green plant response rating (0 to 100 scale): Postemergence, 16 g ai/ha, greenhouse 10 days, 0 no effect, 100 complete control
How it was run: as §1

[17] = test system: horseweed (Erigeron canadensis); assay: as above; conditions: for Horseweed plant response rating (0 to 100 scale): Postemergence, 16 g ai/ha, greenhouse 10 days, 0 no effect, 100 complete control
How it was run: as §1

[18] = test system: kochia (Bassia scoparia); assay: as above; conditions: for Kochia plant response rating (0 to 100 scale): Postemergence, 16 g ai/ha, greenhouse 10 days, 0 no effect, 100 complete control
How it was run: as §1

[19] = test system: oat, wild (wild oat, Avena fatua); assay: as above; conditions: for Oat, Wild plant response rating (0 to 100 scale): Postemergence, 16 g ai/ha, greenhouse 10 days, 0 no effect, 100 complete control
How it was run: as §1

[20] = test system: palmer (palmer amaranth, palmer pigweed, Amaranthus palmeri); assay: as above; conditions: for Pigweed, Palmer plant response rating (0 to 100 scale): Postemergence, 16 g ai/ha, greenhouse 10 days, 0 no effect, 100 complete control
How it was run: as §1

[21] = test system: ragweed (common ragweed, Ambrosia artemisiifolia); assay: as above; conditions: for Ragweed plant response rating (0 to 100 scale): Postemergence, 16 g ai/ha, greenhouse 10 days, 0 no effect, 100 complete control
How it was run: as §1

[22] = test system: ryegrass, Italian (italian ryegrass, Lolium multiflorum); assay: as above; conditions: for Ryegrass, Italian plant response rating (0 to 100 scale): Postemergence, 16 g ai/ha, greenhouse 10 days, 0 no effect, 100 complete control
How it was run: as §1

[23] = test system: soybean (Glycine max); assay: as above; conditions: for Soybean plant response rating (0 to 100 scale): Postemergence, 16 g ai/ha, greenhouse 10 days, 0 no effect, 100 complete control
How it was run: as §1

[24] = test system: wheat (Triticum aestivum); assay: as above; conditions: for Wheat plant response rating (0 to 100 scale): Postemergence, 16 g ai/ha, greenhouse 10 days, 0 no effect, 100 complete control
How it was run: as §1

[25] = test system: barnyardgrass (Echinochloa crusgalli); assay: Test B flooded paddy test, visual plant response rating 0-100; conditions: 250 g ai/ha, Flood, applied to paddy water, evaluated after 13 days
How it was run: (§2)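 Plants were grown to the 2-leaf stage, then pots were flooded to 3 cm above the soil and test compounds were applied directly into the paddy water. Water depth was held there throughout; after 13 days in a greenhouse, injury was scored visually against untreated controls.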

[26] = test system: ducksalad (Heteranthera limosa); assay: as above; conditions: 250 g ai/ha, Flood, applied to paddy water, evaluated after 13 days
How it was run: as §2

[27] = test system: rice (Oryza sativa); assay: as above; conditions: 250 g ai/ha, Flood, applied to paddy water, evaluated after 13 days
How it was run: as §2

[28] = test system: sedge, umbrella (small-flower umbrella sedge, Cyperus difformis); assay: as above; conditions: 250 g ai/ha, Flood, applied to paddy water, evaluated after 13 days
How it was run: as §2

[29] = 62 g ai/ha, 0 = no effect, 100 = complete control
[30] = 62 g ai/ha, postemergence, 10 days, 0 = no effect, 100 = complete control

CC1(C(=O)NC2CC(C(=O)OCC(F)(F)F)C2)CN(c2cc(F)cc(F)c2)C(=O)O1 (centres unmarked) [Compound 121]
20: Corn plant response rating [3] | Ryegrass, Italian plant response rating (0 to 100 scale) [22]
100: Barnyardgrass plant response rating (0-100) [12, 30] | Blackgrass plant response rating (0-100) [13, 30] | Corn plant response rating (0-100) [14, 30] | Corn plant response rating (0 to 100 scale) [14]
60: Barnyardgrass plant response rating (0 to 100 scale) [12] | Galium plant response rating (0-100) [15, 30]
90: Blackgrass plant response rating (0-100) [2, 29] | Corn plant response rating (0-100) [3, 29] | Foxtail, Green plant response rating (0-100) [4, 29] | Oat, Wild plant response rating [6] | Oat, Wild plant response rating (0-100) [6, 29] | Ryegrass, Italian plant response rating (0-100) [9, 29] | Blackgrass plant response rating (0 to 100 scale) [13] | Foxtail, Green plant response rating (0-100) [16, 30] | Oat, Wild plant response rating (0-100) [19, 30] | Wheat plant response rating (0-100) [24, 30] | Wheat plant response rating (0 to 100 scale) [24]
30: Galium plant response rating (0 to 100 scale) [15]
40: Wheat plant response rating [11] | Oat, Wild plant response rating (0 to 100 scale) [19]
10: Horseweed plant response rating (0-100) [17, 30] | Kochia plant response rating (0 to 100 scale) [18]
50: Blackgrass plant response rating [2] | Ryegrass, Italian plant response rating [9] | Soybean plant response rating (0 to 100 scale) [23]
80: Barnyardgrass plant response rating (0-100) [1, 29] | Wheat plant response rating (0-100) [11, 29]
0: Barnyardgrass plant response rating [1] | Foxtail, Green plant response rating [4] | Kochia plant response rating [5] | Pigweed, Palmer plant response rating [7] | Ragweed plant response rating [8] | Ragweed plant response rating (0-100) [8, 29] | Soybean plant response rating [10] | Soybean plant response rating (0-100) [10, 29] | Horseweed plant response rating (0 to 100 scale) [17] | Pigweed, Palmer plant response rating (0 to 100 scale) [20] | Ragweed plant response rating (0-100) [21, 30] | Ragweed plant response rating (0 to 100 scale) [21] | Plant response rating, Barnyardgrass (0 to 100 scale, 0 is no effect and 100 is complete control) [25] | Plant response rating, Ducksalad (0 to 100 scale, 0 is no effect and 100 is complete control) [26] | Plant response rating, Rice (0 to 100 scale, 0 is no effect and 100 is complete control) [27] | Plant response rating, Sedge, Umbrella (0 to 100 scale, 0 is no effect and 100 is complete control) [28]
70: Kochia plant response rating (0-100) [5, 29] | Pigweed, Palmer plant response rating (0-100) [7, 29] | Foxtail, Green plant response rating (0 to 100 scale) [16] | Kochia plant response rating (0-100) [18, 30] | Pigweed, Palmer plant response rating (0-100) [20, 30] | Ryegrass, Italian plant response rating (0-100) [22, 30] | Soybean plant response rating (0-100) [23, 30]

CC1(C(=O)NC2C=CC(C(=O)O)C2)CN(c2cc(F)c(F)c(F)c2)C(=O)O1 (centres unmarked) [Compound 123]
30: Galium plant response rating (0 to 100 scale) [15] | Foxtail, Green plant response rating (0 to 100 scale) [16]
80: Wheat plant response rating [11] | Wheat plant response rating (0 to 100 scale) [24]
0: Barnyardgrass plant response rating [1] | Blackgrass plant response rating [2] | Corn plant response rating [3] | Foxtail, Green plant response rating [4] | Kochia plant response rating [5] | Pigweed, Palmer plant response rating [7] | Ragweed plant response rating [8] | Ryegrass, Italian plant response rating [9] | Soybean plant response rating [10] | Horseweed plant response rating (0 to 100 scale) [17] | Kochia plant response rating (0 to 100 scale) [18] | Ragweed plant response rating (0 to 100 scale) [21] | Plant response rating, Barnyardgrass (0 to 100 scale, 0 is no effect and 100 is complete control) [25] | Plant response rating, Sedge, Umbrella (0 to 100 scale, 0 is no effect and 100 is complete control) [28]
70: Corn plant response rating (0 to 100 scale) [14]
10: Oat, Wild plant response rating [6] | Plant response rating, Rice (0 to 100 scale, 0 is no effect and 100 is complete control) [27]
60: Barnyardgrass plant response rating (0 to 100 scale) [12] | Oat, Wild plant response rating (0 to 100 scale) [19] | Ryegrass, Italian plant response rating (0 to 100 scale) [22] | Soybean plant response rating (0 to 100 scale) [23]
20: Pigweed, Palmer plant response rating (0 to 100 scale) [20]
90: Blackgrass plant response rating (0 to 100 scale) [13]
55: Plant response rating, Ducksalad (0 to 100 scale, 0 is no effect and 100 is complete control) [26]
